Measurements as given in PubChem BioAssay AID488798 (The Scripps Research Institute Molecular Screening Center, 2010).
The source made the active and inactive calls. How the calls were made is not given here.

Target: Protein Rev (Human immunodeficiency virus type 1 group M subtype B (isolate HXB2)) (UniProt P04618)
Experiment: Rev-RRE interaction blockers – biochemical, FRET, dose response, counter-screen for gld-1 inhibitor project, late-stage follow-up (AID 488798)
Settings: FRET Rev-RRE RNA binding

Chain of Protein Rev (Human immunodeficiency virus type 1 group M subtype B (isolate HXB2)) (P04618 whole entry, looked up): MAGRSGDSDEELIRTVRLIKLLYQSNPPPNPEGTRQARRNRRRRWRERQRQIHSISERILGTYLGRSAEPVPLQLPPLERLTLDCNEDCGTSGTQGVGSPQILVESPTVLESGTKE

Structure (SMILES)	IC50
CC1=CC(=O)c2c(O)ccc(O)c2C1=O	> 75.4 µM (inactive)
O=c1[nH]c2cc3ccccc3cc2nc1C(F)(F)F	inactive
CCOC(=O)c1c(C)oc2c1cc(NS(=O)(=O)c1ccc(C)cc1)c1ccccc12	> 75.4 µM (inactive)
Cc1ccc(S(=O)(=O)Nc2cc3c(C(=O)Nc4ccccc4)c(C)oc3c3ccccc23)c(C)c1	> 75.4 µM (inactive)
O=c1[nH]c(=O)c2nc3ccccc3nc2[nH]1	> 75.4 µM (inactive)
Cc1ccc(S(=O)(=O)Nc2cc3c(C(=O)Nc4ccccc4)c(C)oc3c3ccccc23)cc1	inactive
O=C(CN1C(=O)NC2(CCCCC2)C1=O)Oc1ccc2c(C(F)(F)F)cc(=O)oc2c1	> 75.4 µM (inactive)
O=C1C2=C(SCCS2)C(=O)N1CCCO	> 75.4 µM (inactive)
Nc1c(O)ccc2c1C(=O)c1ccccc1C2=O	> 75.4 µM (inactive)
Nc1ccc(O)c2c1C(=O)c1ccccc1C2=O	> 75.4 µM (inactive)
CCCCn1c(=O)[nH]c2nc3cc(NC(C)=O)ccc3nc2c1=O	inactive
CCN(CC)S(=O)(=O)c1ccc(N2CCCC2)c(NS(=O)(=O)c2ccc(F)cc2)c1	> 75.4 µM (inactive)
COc1ccc(/C=C(\CC(=O)O)c2nc3ccccc3s2)cc1O	> 75.4 µM (inactive)
Nc1ccc2nonc2c1[N+](=O)[O-]	> 75.4 µM (inactive)
COc1ccc(C=Nc2c(-c3ccco3)nc3ccccn23)cc1OC	> 75.4 µM (inactive)
